pEC50: −log10 of the molar value.

In this assay the target is T1, human mGlu2 receptor (Homo sapiens, UniProt Q14416).
T1 construct: expressed in transfected cells; host or cells: HEK293
T1 sequence (Q14416 19-872): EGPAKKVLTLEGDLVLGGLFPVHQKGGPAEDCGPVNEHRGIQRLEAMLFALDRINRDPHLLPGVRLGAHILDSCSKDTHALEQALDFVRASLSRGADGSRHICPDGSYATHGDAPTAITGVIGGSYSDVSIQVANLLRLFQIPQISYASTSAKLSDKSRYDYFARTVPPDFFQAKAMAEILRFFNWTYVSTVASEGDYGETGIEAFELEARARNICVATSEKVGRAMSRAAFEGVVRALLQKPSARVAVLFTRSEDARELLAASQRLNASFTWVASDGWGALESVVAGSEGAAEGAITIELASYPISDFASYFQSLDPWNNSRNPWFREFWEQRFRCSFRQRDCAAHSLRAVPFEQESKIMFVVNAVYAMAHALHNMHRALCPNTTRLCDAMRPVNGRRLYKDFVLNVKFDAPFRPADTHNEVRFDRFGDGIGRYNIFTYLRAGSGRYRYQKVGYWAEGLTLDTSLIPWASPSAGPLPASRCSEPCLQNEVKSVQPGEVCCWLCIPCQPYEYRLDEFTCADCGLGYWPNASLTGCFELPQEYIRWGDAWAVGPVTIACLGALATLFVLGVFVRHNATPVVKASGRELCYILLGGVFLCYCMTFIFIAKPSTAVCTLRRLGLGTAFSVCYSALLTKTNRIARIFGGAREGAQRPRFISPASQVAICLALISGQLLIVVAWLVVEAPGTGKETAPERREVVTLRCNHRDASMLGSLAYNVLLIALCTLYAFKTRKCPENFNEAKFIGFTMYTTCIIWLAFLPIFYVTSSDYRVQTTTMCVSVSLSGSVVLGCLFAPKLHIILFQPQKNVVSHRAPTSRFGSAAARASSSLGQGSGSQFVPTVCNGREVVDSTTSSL
Briefly: FLIPR intracellular Ca2+ assay, potentiation of glutamate response in HEK293 clone expressing mGlu2 receptor, rGLAST and Galpha16. Particulars: 1 μM glutamate added ten minutes after test compound, HEK293 cells with human mGlu2, rGLAST, Galpha16, read-out: EC50 values of potentiation effect to glutamate. Format: cell-based. An excerpt: The compounds of the present invention can be tested e.g. by evaluating intracellular Ca^2+ concentrations in cells permanently expressing human mGlu receptor, the rat glutamate transporter rGLAST and the Galpha16 subunit of the G-protein complex under standard conditions in a fluorometric imaging plate reader (FLIPR, Molecular Devices, Union City, Calif. 94587, USA) by measuring the response of the cells to a test compound in the absence of presence of glutamate. The FLIPR assay is a common functional assay to monitor native or recombinant Galphaq-coupled receptors, and native or recombinant receptors normally linked to other G-protein signalling cascades, which are coupled to calcium through co-expression of an alpha subunit of a promiscuous or chimeric G-protein. In the assay the increase of intracellular calcium is measured through a calcium-dependent fluorescent dye (e.g. Fluo-4 AM) in the FLIPR instrument.
For the purpose of the present study, a cell line permanently expressing a human mGlu receptor, such as the mGlu2 receptor, the rat glutamate transporter rGLAST and the GalphaG16 may be generated by transfection as described in the examples. For selection of a suitable cell clone and also the subsequent measurements, the selected clone the cells will be plated on suitable multiwell plates in a suitable medium (e.g. DMEM Glutamax (GIBCO #21885-025)/10% dialyzed FCS). Cells may be selected by gentamycin treatment as described in the examples. Cells will then be loaded with a suitable Ca^2+ sensitive fluorescence dye, e.g. with 2 μM Fluo-4 AM (Molecular Probes, F14201). Cells will then be washed with a suitable buffer (e.g. HEPES) and the thus treated plates will be measured in a fluorometric imaging plate reader (e.g. FLIPR, Molecular Devices, Union City, Calif. 94587, USA).
The compounds of the present invention were tested in the above-described FLIPR assay using the selected cell clone. Increased intracellular calcium levels were quantified following addition of test compound (agonism), as well as following addition of a submaximal concentration of glutamate (potentiation).
For the determination of the effect of the test compound by itself (agonism) or by increasing the response to a submaximal concentration (e.g. 1 μM) of glutamate (potentiation), the resulting signal is determined by subtraction of the background fluorescence from the maximal fluorescent peak height of the respective response. In the FLIPR instrument the compound is given to the cell and its fluorescence response quantified by the FLIPR instrument (agonism). The concentration at which the compound exerts half its maximal effect is named the ‘effective concentration 50’ or ‘EC50’. The maximal effect induced by the test substance is normalized to the maximal effect exerted by 100 μM glutamate (set at 100%).
After addition of the test compound to the plate, a submaximal concentration of glutamate (e.g. 1 μM glutamate) will be added. A potentiator enhances the response of the receptor to glutamate. The response to glutamate in the presence of test compound is quantified. The concentration at which the test compound is able to exert half its maximal potentiation effect to glutamate is named the ‘EC50’. The maximal response to the submaximal concentration of glutamate (e.g. 1 micromolar glutamate) in the presence of test compound is normalized to the maximal effect exerted by 100 micromolar glutamate (set at 100%). Least squares curve fitting with a four-parameter equation is then applied to the resulting dose-response curve to determine the resulting EC5O values (Graph Pad Prism).
For the purpose of the present study, a cell line permanently expressing the human mGlu2 receptor, the rat glutamate transporter rGLAST and the alpha subunit of G16 was generated by transfection. […]
The term pEC50 denotes the EC50 on a negative log10 scale, so that one unit is a factor of ten. Regarding `CCCC(C)Oc1cccc(NCc2c[nH]nc2-c2ccc(C(F)(F)F)cc2)c1` (stereo not shown) [Example 379, [3-(1-Methyl-butoxy)-phenyl]-[3-(4-trifluoromethyl-phenyl)-1H-pyrazol-4-ylmethyl]-amine], the pEC50 is 5.00 to 6.00.
`CC(=O)c1ccc(OCc2c[nH]nc2-c2ccc(C(F)(F)F)cc2)c(C)c1` [Example 488, 1-{3-Methyl-4-[3-(4-trifluoromethyl-phenyl)-1H-pyrazol-4-ylmethoxy]-phenyl}-ethanone]: the negative logarithm of the EC50 (pEC50) is 5.00 to 6.00.
Next, `CCCC(=O)c1ccc(NCc2ccc(N(C)C)nc2)cc1` [Example 387, 1-{4-[(6-Dimethylamino-pyridin-3-ylmethyl)-amino]-phenyl}-butan-1-one]: 5.00 to 6.00; `CCCC(=O)c1ccc(NCc2c[nH]nc2-c2ccc(C)cc2)cc1` [Example 212, 1-{4-[(3-p-Tolyl-1H-pyrazol-4-ylmethyl)-amino]-phenyl}-butan-1-one]: greater than 6.00.
With `O=C1c2ccc(OCc3c[nH]nc3-c3ccc(F)cc3)cc2CN1CCC(F)(F)F` [Example 540, 5-[3-(4-Fluorophenyl)-1H-pyrazol-4-ylmethoxy]-2-(3,3,3-trifluoro-propyl)-2,3-dihydro-isoindol-1-one], the negative-log EC50 (pEC50) was greater than 6.00.
Turning to `CCCC(=O)c1ccc(NCc2c[nH]nc2-c2ccc(O)cc2)cc1` [Example 76, 1-(4-{[3-(4-Hydroxyphenyl)-1H-pyrazol-4-ylmethyl]amino}phenyl)butan-1-one], the negative-log EC50 (pEC50) was greater than 6.00.
As for `CCCC(=O)c1ccc(NCc2cnc(-c3ccccc3OC)s2)cc1` [Example 242, 1-(4-{[2-(2-Methoxy-phenyl)-thiazol-5-ylmethyl]-amino}-phenyl)-butan-1-one], the pEC50 was 5.00 to 6.00.
Next, `CCCC(=O)c1ccc(NCc2c[nH]nc2-c2ccccc2Cl)cc1` [Example 510, 1-(4-{[3-(2-Chloro-phenyl)-1H-pyrazol-4-ylmethyl]-amino}-phenyl)-butan-1-one]: greater than 6.00; `CCCCN1Cc2cc(OCc3c[nH]nc3-c3cccc(F)c3)ccc2C1=O` [Example 550, 2-Butyl-5-[3-(3-fluorophenyl)-1H-pyrazol-4-ylmethoxy]-2,3-dihydro-isoindol-1-one]: greater than 6.00; `CN(C)c1ccc(N(Cc2cccnc2)S(=O)(=O)CC(F)(F)F)cc1` [Example 385, 2,2,2-Trifluoro-ethanesulfonic acid (4-dimethylamino-phenyl)-pyridin-3-ylmethyl-amide]: 5.00 to 6.00.
Next, `CCCC(=O)c1ccc(NCc2cnccc2-c2ccccc2)cc1` [Example 525, 1-{4-[(4-Phenyl-pyridin-3-ylmethyl)-amino]-phenyl}-butan-1-one]: greater than 6.00; `O=C1c2ccc(OCc3c[nH]nc3-c3ccc(F)cc3)cc2CN1CC(F)(F)F` [Example 570, 5-[3-(4-Fluorophenyl)-1H-pyrazol-4-ylmethoxy]-2-(2,2,2-trifluoro-ethyl)-2,3-dihydro-isoindol-1-one]: greater than 6.00.
As for `CCCC(=O)c1ccc(NCc2c(C)nn(C)c2Oc2cccc(Cl)c2)cc1` [Example 50, 1-(4-{[5-(3-Chlorophenoxy)-1,3-dimethyl-1H-pyrazol-4-ylmethyl]amino}phenyl)butan-1-one], the pEC50 is 5.00 to 6.00.
As to `CCCC(=O)c1ccc(NCc2n[nH]c3ccc(OC)cc23)cc1` [Example 223, 1-{4-[(5-Methoxy-1H-indazol-3-ylmethyl)-amino]-phenyl}-butan-1-one], the pEC50 was 5.00 to 6.00.
Next, `O=C1c2ccc(OCc3c[nH]nc3-c3ccccc3)cc2CN1CCC(F)(F)F` [Example 543, 5-(3-Phenyl-1H-pyrazol-4-ylmethoxy)-2-(3,3,3-trifluoro-propyl)-2,3-dihydro-isoindol-1-one]: greater than 6.00; `O=C1c2ccc(OCc3c[nH]nc3-c3ccc(C(F)(F)F)cc3)cc2CN1Cc1ccc(OC(F)(F)F)cc1` [Example 585, 2-(4-Trifluoromethoxy-benzyl)-5-[3-(4-trifluoromethyl-phenyl)-1H-pyrazol-4-ylmethoxy]-2,3-dihydro-isoindol-1-one]: greater than 6.00.

The values are drawn from patent US9242933B2 (AbbVie Deutschland GmbH & Co. KG, priority 2007, dated 2016).
